The test has as its system BDF1 mice, P388 leukemia ip, median survival T/C. Description: NCI In Vivo Anticancer Drug Screen. Data for tumor model P388 Leukemia (intraperitoneal) in B6D2F1 (BDF1) mice. As to conditions: endpoint: median survival time, higher = longer survival. The gist of the method: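 Compound-treated tumour-bearing mice were compared with vehicle-treated controls. Survival was recorded, and the value is the treated-group measurement divided by the control-group measurement (T/C).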

The mark [1] stands for this setting: dose: 6.25 mg/kg/injection, schedule: Q01DX009 (ip), vehicle: saline with Tween-80.
Setting [2] is: dose: 12.5 mg/kg/injection, schedule: Q01DX009 (ip), vehicle: saline with Tween-80.
The mark [3] stands for this setting: dose: 25.0 mg/kg/injection, schedule: Q01DX009 (ip), vehicle: saline with Tween-80.
The mark [4] stands for this setting: dose: 100.0 mg/kg/injection, schedule: Q04DX003 (ip), vehicle: saline with Tween-80.
The mark [5] stands for this setting: dose: 400.0 mg/kg/injection, schedule: Q04DX003 (ip), vehicle: saline with Tween-80.
Setting [6] is: dose: 12.5 mg/kg/injection, schedule: Q04DX003 (ip), vehicle: Klucel (hydroxypropylcellulose) (HPC).
Where [7] appears, read: dose: 25.0 mg/kg/injection, schedule: Q04DX003 (ip), vehicle: Klucel (hydroxypropylcellulose) (HPC).
[8] abbreviates: dose: 50.0 mg/kg/injection, schedule: Q04DX003 (ip), vehicle: Klucel (hydroxypropylcellulose) (HPC).
[9] abbreviates: dose: 100.0 mg/kg/injection, schedule: Q04DX003 (ip), vehicle: Klucel (hydroxypropylcellulose) (HPC).
Setting [10] is: dose: 50.0 mg/kg/injection, schedule: Q01DX009 (ip), vehicle: saline with Tween-80.
[11] abbreviates: dose: 200.0 mg/kg/injection, schedule: Q04DX003 (ip), vehicle: saline with Tween-80.
Setting [12] is: dose: 50.0 mg/kg/injection, schedule: Q01DX009 (ip), vehicle: other.
Setting [13] is: dose: 50.0 mg/kg/injection, schedule: Q01DX009 (ip), vehicle: Klucel (hydroxypropylcellulose) (HPC).
[14] abbreviates: dose: 6.25 mg/kg/injection, schedule: Q01DX009 (ip), vehicle: water.
Where [15] appears, read: dose: 12.5 mg/kg/injection, schedule: Q01DX009 (ip), vehicle: water.
The mark [16] stands for this setting: dose: 25.0 mg/kg/injection, schedule: Q01DX009 (ip), vehicle: water.
[17] abbreviates: dose: 50.0 mg/kg/injection, schedule: Q01DX009 (ip), vehicle: water.

Values joined by “and” are separate entries in the source; they are usually repeats but may differ in a detail not shown here. Equal values may be shown once. Toxic doses and inconclusive results are not listed.

Consider `COc1cc(/C=N/NC(=O)C[n+]2ccccc2)cc(OC)c1`, for which the T/C reads like this: (dose: 25.0 mg/kg/injection, schedule: Q01DX009 (ip), vehicle: saline) 104 % of control; (dose: 25.0 mg/kg/injection, schedule: Q04DX003 (ip), vehicle: saline) 109 % of control; (dose: 50.0 mg/kg/injection, schedule: Q01DX009 (ip), vehicle: saline) 100 % of control; (dose: 50.0 mg/kg/injection, schedule: Q04DX003 (ip), vehicle: saline) 104 % of control; (dose: 100.0 mg/kg/injection, schedule: Q04DX003 (ip), vehicle: saline) 86 % of control.

Take `O=C(Nc1cccc2c1C(=O)c1cccc(NC(=O)c3ccc(C(=O)Nc4cccc5c4C(=O)c4cccc(NC(=O)c6ccccc6)c4C5=O)cc3)c1C2=O)c1ccccc1`: the T/C is 92 % of control under setting [1], 107 % of control under setting [2] and 111 % of control under setting [3].

Regarding `O=C1C(=C(C(F)(F)F)C(F)(F)F)CCc2ccc([N+](=O)[O-])cc21`, the T/C under setting [4] is 110 % of control and the T/C under setting [5] is 110 % of control.

`Cn1c(CS)nc2ccccc21`: the T/C under setting [6] was 104 % of control, the T/C under setting [7] is 102 % of control, the T/C under setting [8] is 105 % of control and the T/C under setting [9] is 96 % of control.

On to `N#Cc1nc(C#N)c(Sc2ccccc2)c(Sc2ccccc2)c1Sc1ccccc1`, for which the T/C under setting [2] was 101 % of control and 110 % of control; the T/C under setting [3] is 100 % of control and 103 % of control; the T/C under setting [10] is 121 % of control and 122 % of control.

Regarding `CC1(C)CCCC(Cl)(C(Cl)c2ccccc2)C1=O` (stereo not drawn), the T/C (dose: 75.0 mg/kg/injection, schedule: Q01DX001 (ip), vehicle: other) is 100 % of control; the T/C (dose: 150.0 mg/kg/injection, schedule: Q01DX001 (ip), vehicle: other) is 95 % of control; the T/C (dose: 300.0 mg/kg/injection, schedule: Q01DX001 (ip), vehicle: other) is 95 % of control.

For the molecule `Cc1c(C)c(Br)c(C)c(-c2c(O)c(Br)c(-c3c(C)c(C)c(C)c(Br)c3C)c(O)c2Br)c1C`, the T/C was 100 % of control under setting [4], 90 % of control under setting [11] and 90 % of control under setting [5].

As to `CCSSC(=Nc1ccccc1)OCC(C)C`, the T/C under setting [12] was 119 % of control.

As for `CC(C)(C)OC(=O)N/N=C1\CC2CCC1C2` (stereo not drawn), the T/C runs as follows: under setting [1], 96 % of control; under setting [2], 96 % of control; (dose: 13.75 mg/kg/injection, schedule: Q04DX003 (ip), vehicle: Klucel (hydroxypropylcellulose) (HPC)) 95 % of control; under setting [3], 100 % of control; (dose: 27.5 mg/kg/injection, schedule: Q04DX003 (ip), vehicle: Klucel (hydroxypropylcellulose) (HPC)) 100 % of control; (dose: 35.0 mg/kg/injection, schedule: Q01DX009 (ip), vehicle: Klucel (hydroxypropylcellulose) (HPC)) 105 % of control. Moreover, the T/C (dose: 55.0 mg/kg/injection, schedule: Q01DX009 (ip), vehicle: Klucel (hydroxypropylcellulose) (HPC)) is 100 % of control; the T/C (dose: 55.0 mg/kg/injection, schedule: Q04DX003 (ip), vehicle: Klucel (hydroxypropylcellulose) (HPC)) is 100 % of control; the T/C (dose: 80.0 mg/kg/injection, schedule: Q04DX003 (ip), vehicle: Klucel (hydroxypropylcellulose) (HPC)) was 105 % of control; the T/C (dose: 125.0 mg/kg/injection, schedule: Q04DX003 (ip), vehicle: Klucel (hydroxypropylcellulose) (HPC)) was 110 % of control.

In the case of `CC[n+]1ccc(Cc2ccc([N+](=O)[O-])cc2)cc1`, the T/C by setting is: (dose: 25.0 mg/kg/injection, schedule: Q01DX009 (ip), vehicle: Klucel (hydroxypropylcellulose) (HPC)) 104 % of control and 119 % of control; under setting [7], 100 % of control; under setting [13], 109 % of control; under setting [8], 100 % of control; under setting [9], 100 % of control.

For `Cc1ccc(NC(=O)COc2ccc(Cl)cc2Cl)cc1Cl`, the T/C is, setting by setting: under setting [4], 100 % of control; under setting [11], 90 % of control; under setting [5], 90 % of control.

Regarding `COc1cc(C=Nc2cc(Cl)cc(Cl)c2)ccc1N(CCCl)CCCl`, the T/C (dose: 132.0 mg/kg/injection, schedule: Q04DX003 (ip), vehicle: saline with Tween-80) is 163 % of control; the T/C under setting [11] was 177 % of control; the T/C (dose: 300.0 mg/kg/injection, schedule: Q04DX003 (ip), vehicle: saline with Tween-80) is 177 % of control.

Consider `CCC(C)(O)C(=O)OC1C(=O)OC2CC3C(C)CC(=O)C(O)C3(C)C3C4(O)OCC23C1C(C)C4O` (stereo not drawn), for which the T/C (dose: 0.12 mg/kg/injection, schedule: Q01DX009 (ip), vehicle: saline with Tween-80) was 121 % of control; the T/C (dose: 0.25 mg/kg/injection, schedule: Q01DX009 (ip), vehicle: saline with Tween-80) was 118 % of control; the T/C (dose: 0.5 mg/kg/injection, schedule: Q01DX009 (ip), vehicle: saline with Tween-80) is 116 % of control; the T/C (dose: 1.0 mg/kg/injection, schedule: Q01DX009 (ip), vehicle: saline with Tween-80) is 121 % of control; the T/C (dose: 8.0 mg/kg/injection, schedule: Q01DX009 (ip), vehicle: saline with Tween-80) is 122 % of control; the T/C (dose: 16.0 mg/kg/injection, schedule: Q01DX009 (ip), vehicle: saline with Tween-80) is 152 % of control.

In the case of `O=C(CC(O)(C(F)(F)F)C(F)(F)F)c1ccc(Cl)cc1`, the T/C by setting is: under setting [10], 108 % of control; (dose: 100.0 mg/kg/injection, schedule: Q01DX009 (ip), vehicle: saline with Tween-80) 95 % of control; (dose: 200.0 mg/kg/injection, schedule: Q01DX009 (ip), vehicle: saline with Tween-80) 108 % of control.

For `CN(C(=O)c1ccccc1)N(C)C(=O)c1ccccc1`, the T/C under setting [6] was 90 % of control, the T/C under setting [7] is 109 % of control and the T/C under setting [8] was 100 % of control.

With `CC(C)(C)CC(=O)OCCC[N+](C)(C)C`, the T/C was 103 % of control under setting [14], 119 % of control under setting [15], 99 % of control under setting [16] and 91 % of control under setting [17].

`CC[n+]1c(-c2ccccc2)c2cc(N)ccc2c2ccc(N)cc21` (tested in a mixture with another compound): the T/C is 112 % of control (dose: 25.0 mg/kg/injection, schedule: Q01DX009 (ip), vehicle: other) and 112 % of control under setting [12].

`O=S1(=O)CC(Cl)(Br)C1`: the T/C by setting is: under setting [13], 105 % of control; (dose: 100.0 mg/kg/injection, schedule: Q01DX009 (ip), vehicle: Klucel (hydroxypropylcellulose) (HPC)) 114 % of control; (dose: 200.0 mg/kg/injection, schedule: Q01DX009 (ip), vehicle: Klucel (hydroxypropylcellulose) (HPC)) 123 % of control.

As for `c1ccc(CN(CCNc2ccccc2)c2ccccc2)cc1`, the T/C by setting is: (dose: 0.78 mg/kg/injection, schedule: Q01DX009 (ip), vehicle: water) 106 % of control; (dose: 1.56 mg/kg/injection, schedule: Q01DX009 (ip), vehicle: water) 104 % of control; (dose: 3.12 mg/kg/injection, schedule: Q01DX009 (ip), vehicle: water) 108 % of control; under setting [14], 104 % of control; under setting [15], 106 % of control; under setting [16], 92 % of control. Besides, the T/C runs as follows: under setting [17], 92 % of control; (dose: 50.0 mg/kg/injection, schedule: Q04DX003 (ip), vehicle: water) 100 % of control; (dose: 100.0 mg/kg/injection, schedule: Q01DX009 (ip), vehicle: water) 115 % of control; (dose: 100.0 mg/kg/injection, schedule: Q04DX003 (ip), vehicle: water) 98 % of control; (dose: 200.0 mg/kg/injection, schedule: Q01DX009 (ip), vehicle: water) 97 % of control; (dose: 200.0 mg/kg/injection, schedule: Q04DX003 (ip), vehicle: water) 103 % of control.

Source of the values: PubChem BioAssay AID328 (DTP/NCI, 2004).
